Measured values published in PubChem BioAssay (NCI).
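GI50: concentration for 50% inhibition of growth. TGI denotes the concentration required for complete inhibition of growth.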

Tests used:
Assay in all cases: NCI anticancer screen, dose series, 384-well format
[1] = tested on: SW-620 colon
[2] = tested on: K-562 leukemia
[3] = tested on: MOLT-4 leukemia
[4] = tested on: RPMI-8226 leukemia
[5] = tested on: T-47D breast
[6] = tested on: NCI-H322M lung
[7] = tested on: SNB-19 CNS
[8] = tested on: MDA-MB-435 melanoma
[9] = tested on: U251 glioblastoma
[10] = tested on: UACC-62 melanoma
[11] = tested on: HCC-2998 colon
[12] = tested on: NCI-H522 lung
[13] = tested on: UO-31 renal

O=C(c1cc(Cc2n[nH]c(=O)c3ccccc23)ccc1F)N1CCN(C(=O)C2CC2)CC1
GI50 [1]: > 35 µM
TGI [1]: > 100 µM
GI50 [2]: 33.5 µM
TGI [2]: > 100 µM
GI50 [3]: 1.43 µM
TGI [3]: 3.03 µM
GI50 [4]: 12.7 µM
TGI [4]: > 100 µM
GI50 [5]: 34.8 µM
TGI [5]: > 100 µM
GI50 [6]: > 100 µM
TGI [6]: > 100 µM
GI50 [7]: 99.2 µM
TGI [7]: > 100 µM
GI50 [8]: > 100 µM
TGI [8]: > 100 µM
GI50 [9]: 27.3 µM
TGI [9]: > 100 µM
GI50 [10]: > 95.7 µM
TGI [10]: > 100 µM
GI50 [11]: > 29.2 µM
TGI [11]: > 100 µM
GI50 [12]: 51.7 µM
TGI [12]: > 100 µM
GI50 [13]: > 92.7 µM
TGI [13]: > 100 µM
